In experiment [1] the target is 5-hydroxytryptamine receptor 2A (Homo sapiens, UniProt P28223). It counts as functional, cell-based.
The next experiment deals with T1, Androgen receptor (Rattus norvegicus, UniProt P15207).
T1 sequence (P15207 whole entry): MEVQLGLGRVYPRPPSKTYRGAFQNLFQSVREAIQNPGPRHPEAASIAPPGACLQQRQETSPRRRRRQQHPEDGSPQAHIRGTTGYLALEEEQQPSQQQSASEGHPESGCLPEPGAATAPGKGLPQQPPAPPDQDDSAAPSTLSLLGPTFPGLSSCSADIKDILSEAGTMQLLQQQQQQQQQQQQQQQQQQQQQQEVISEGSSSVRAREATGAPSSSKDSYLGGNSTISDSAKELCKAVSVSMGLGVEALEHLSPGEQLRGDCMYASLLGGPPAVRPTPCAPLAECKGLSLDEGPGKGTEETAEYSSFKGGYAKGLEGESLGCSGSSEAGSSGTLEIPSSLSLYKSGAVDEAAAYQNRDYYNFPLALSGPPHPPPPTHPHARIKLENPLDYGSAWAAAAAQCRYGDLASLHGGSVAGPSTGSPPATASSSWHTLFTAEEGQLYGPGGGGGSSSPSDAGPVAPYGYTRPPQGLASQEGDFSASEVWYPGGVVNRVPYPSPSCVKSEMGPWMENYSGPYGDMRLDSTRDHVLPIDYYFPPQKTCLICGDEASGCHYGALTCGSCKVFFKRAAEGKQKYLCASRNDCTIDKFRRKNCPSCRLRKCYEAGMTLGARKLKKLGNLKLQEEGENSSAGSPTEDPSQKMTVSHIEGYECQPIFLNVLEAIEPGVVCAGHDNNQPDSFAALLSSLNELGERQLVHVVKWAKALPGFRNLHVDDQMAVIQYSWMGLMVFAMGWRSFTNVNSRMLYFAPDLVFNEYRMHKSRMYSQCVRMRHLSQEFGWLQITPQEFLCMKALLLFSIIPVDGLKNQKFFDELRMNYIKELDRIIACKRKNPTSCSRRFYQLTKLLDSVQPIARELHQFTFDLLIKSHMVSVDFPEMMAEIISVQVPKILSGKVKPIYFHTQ
It counts as functional.

A further experiment deals with Mu-type opioid receptor (Homo sapiens, UniProt P35372). Briefly: biochemical. It counts as functional.
Mu-type opioid receptor, sequence (P35372 whole entry): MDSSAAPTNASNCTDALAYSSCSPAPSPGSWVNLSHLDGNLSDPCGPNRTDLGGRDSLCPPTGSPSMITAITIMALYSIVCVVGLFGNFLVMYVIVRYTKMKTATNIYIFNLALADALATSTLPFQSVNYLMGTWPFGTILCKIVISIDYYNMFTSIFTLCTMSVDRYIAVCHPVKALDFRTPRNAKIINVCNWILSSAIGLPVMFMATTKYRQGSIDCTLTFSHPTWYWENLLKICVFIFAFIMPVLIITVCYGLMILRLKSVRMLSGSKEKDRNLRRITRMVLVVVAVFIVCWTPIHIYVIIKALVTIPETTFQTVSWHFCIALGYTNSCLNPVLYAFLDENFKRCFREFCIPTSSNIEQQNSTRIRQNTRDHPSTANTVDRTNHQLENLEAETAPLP
Experiment [2] concerns the target Beta-2 adrenergic receptor (Homo sapiens, UniProt P07550). The class given is functional, cell-based.
The next experiment addresses Cannabinoid receptor 1 (Homo sapiens, UniProt P21554).

Where a SMILES comes first, the peptide text is derived from it.
Further: assay procedure not described here.

5-hydroxytryptamine receptor 2A, sequence (P28223 whole entry): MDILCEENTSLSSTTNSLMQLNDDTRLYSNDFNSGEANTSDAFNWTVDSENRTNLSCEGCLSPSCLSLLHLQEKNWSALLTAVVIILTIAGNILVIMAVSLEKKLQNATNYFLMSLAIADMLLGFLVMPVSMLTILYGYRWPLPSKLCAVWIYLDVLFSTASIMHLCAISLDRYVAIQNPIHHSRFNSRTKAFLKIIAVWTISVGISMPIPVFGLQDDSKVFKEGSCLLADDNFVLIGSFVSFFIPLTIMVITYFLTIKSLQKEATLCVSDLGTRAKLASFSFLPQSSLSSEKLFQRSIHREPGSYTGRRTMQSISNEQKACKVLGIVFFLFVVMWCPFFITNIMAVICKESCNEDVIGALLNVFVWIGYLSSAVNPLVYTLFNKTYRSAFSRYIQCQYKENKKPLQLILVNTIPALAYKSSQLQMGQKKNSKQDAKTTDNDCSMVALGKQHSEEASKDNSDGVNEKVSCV
Beta-2 adrenergic receptor, sequence (P07550 whole entry): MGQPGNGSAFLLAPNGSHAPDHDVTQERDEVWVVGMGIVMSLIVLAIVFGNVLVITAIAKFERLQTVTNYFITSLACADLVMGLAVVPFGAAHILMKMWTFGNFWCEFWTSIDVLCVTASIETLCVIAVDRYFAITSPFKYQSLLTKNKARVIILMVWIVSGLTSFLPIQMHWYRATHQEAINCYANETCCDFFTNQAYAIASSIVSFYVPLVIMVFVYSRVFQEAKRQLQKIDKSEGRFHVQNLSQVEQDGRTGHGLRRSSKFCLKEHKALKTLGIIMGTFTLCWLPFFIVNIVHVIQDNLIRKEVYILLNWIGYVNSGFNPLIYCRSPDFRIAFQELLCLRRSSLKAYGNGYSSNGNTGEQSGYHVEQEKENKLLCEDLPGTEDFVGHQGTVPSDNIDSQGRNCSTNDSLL
Cannabinoid receptor 1, sequence (P21554 whole entry): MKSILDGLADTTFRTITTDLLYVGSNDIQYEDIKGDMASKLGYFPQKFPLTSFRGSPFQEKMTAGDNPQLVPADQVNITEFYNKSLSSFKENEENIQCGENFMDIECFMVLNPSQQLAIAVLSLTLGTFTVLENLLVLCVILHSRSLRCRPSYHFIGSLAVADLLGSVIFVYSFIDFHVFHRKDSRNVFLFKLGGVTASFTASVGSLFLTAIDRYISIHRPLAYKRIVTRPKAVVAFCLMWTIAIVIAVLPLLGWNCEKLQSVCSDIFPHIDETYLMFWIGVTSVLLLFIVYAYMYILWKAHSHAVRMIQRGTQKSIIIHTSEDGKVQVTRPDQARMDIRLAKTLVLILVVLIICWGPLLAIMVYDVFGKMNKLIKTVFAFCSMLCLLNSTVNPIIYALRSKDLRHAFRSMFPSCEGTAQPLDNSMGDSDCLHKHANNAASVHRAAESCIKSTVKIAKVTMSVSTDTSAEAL

For orientation: AC50 means the concentration at which the activity in the assay is half-maximal. Low values mean activity at low concentration, high ones activity only at high concentration. For `CCCCC[C@H](O)CC[C@@H]1[C@H]2Cc3cccc(OCC(=O)O)c3C[C@H]2C[C@H]1O` [TREPROSTINIL], the AC50 (in experiment [1]; at Androgen receptor; at Mu-type opioid receptor; in experiment [2]) was over 30 µM each time.
Regarding `NS(=O)(=O)c1ccc(N2CCCCS2(=O)=O)cc1`, the AC50 (in experiment [1]; at Androgen receptor; on Mu-type opioid receptor; in experiment [2]) was over 30 µM each time.
In the case of `CCCCCCCC(=O)CC[C@@H]1[C@@H](C/C=C\CCCC(=O)O)[C@@H](O)C[C@H]1O` [UNOPROSTONE], the AC50 (in experiment [1]; at Androgen receptor; at Mu-type opioid receptor; in experiment [2]) was over 30 µM in each case.
Turning to `CCC(=O)O[C@H](CC(=O)O)C[N+](C)(C)C` [LEVOCARNITINE PROPIONATE], the AC50 (in experiment [1]; at Androgen receptor; on Mu-type opioid receptor; in experiment [2]) was over 30 µM throughout.
Turning to `O=C(O)c1ccc2nc(-c3cc(Cl)cc(Cl)c3)oc2c1`, the AC50 is over 30 µM in experiment [1], 22 µM on Cannabinoid receptor 1, over 30 µM at Androgen receptor and over 30 µM on Mu-type opioid receptor.
In the case of `CN(C)CCOCC(=O)NC12CC3CC(CC(C3)C1)C2` [TROMANTADINE], the AC50 (in experiment [1]; on Androgen receptor; at Mu-type opioid receptor) was over 30 µM each time.
Regarding `O=C(O)c1nn(Cc2ccc(Cl)cc2Cl)c2ccccc12` [LONIDAMINE], the AC50 in experiment [1] is over 30 µM; at Androgen receptor, over 30 µM; at Mu-type opioid receptor it was over 30 µM; in experiment [2], over 10 µM.
As to `Cc1ccc(S(=O)(=O)NC(=O)N[C@H]2[C@H]3CC[C@@](C)([C@H]2O)C3(C)C)cc1` [GLIBORNURIDE], the AC50 (in experiment [1]; on Androgen receptor; at Mu-type opioid receptor; in experiment [2]) was over 30 µM throughout.
Turning to `CCCCOC(=O)C(=O)Nc1cccc(-c2nnn[nH]2)c1` [TAZANOLAST], the AC50 (in experiment [1]; on Androgen receptor; at Mu-type opioid receptor) was over 30 µM in each case.
Take `C[C@H](N)C(=O)N[C@@H](CCC(N)=O)C(=O)O` [ALANYL GLUTAMINE] (H-Ala-Gln-OH): the AC50 (in experiment [1]; on Androgen receptor; at Mu-type opioid receptor) was over 30 µM in each case.
In the case of `CC(=O)OCC(=O)[C@@]1(O)CC[C@H]2[C@@H]3CCC4=CC(=O)CC[C@]4(C)[C@@]3(F)[C@@H](O)C[C@@]21C` [FLUDROCORTISONE ACETATE], the AC50 (at Androgen receptor; at Mu-type opioid receptor; in experiment [2]) was over 30 µM throughout.

For the origin of these results see ChEMBL document CHEMBL5291721, “A preclinical secondary pharmacology resource illuminates target-adverse drug reaction associations of marketed drugs” (Nat Commun, 2023).
